The values below come from ChEMBL document CHEMBL5260792, “Benzophenone: a ubiquitous scaffold in medicinal chemistry” (Medchemcomm, 2018).

In one data set the test system is MCF7. In words: Antiproliferative activity against human MCF7 cells. It is filed as functional, cell-based.
The subject of another data set is K562. Put plainly: Antiproliferative activity against human K562 cells assessed as reduction in cell viability by MTT assay. It is filed as functional, cell-based. On the technique in general: Formazan colour is commonly taken as a measure of viable cells.
The subject of a further data set is CCRF-CEM. Put plainly: Antiproliferative activity against human CEM cells assessed as reduction in cell viability by MTT assay. It is filed as functional, cell-based.
Another data set relates to Leishmania. In words: Antileishmanial activity against Leishmania assessed as reduction in parasite growth. It is filed as functional, organism-based.
For data set [1], the system named is Rattus norvegicus. In words: Anti-hyperlipidemic activity in rat assessed as reduction in triglyceride level at 15 mg/kg, po measured after 18 hrs. It counts as functional. Also noted: scale not given: the % may be the effect or the level left.
The test system of data set [2] is Rattus norvegicus. Put plainly: Anti-hyperlipidemic activity in rat assessed as reduction in total cholesterol level at 15 mg/kg, po measured after 18 hrs. It is filed as functional. Further details: scale not given: the % may be the effect or the level left.
Data set [3] can be described thus: Anti-inflammatory activity in human PBMC cells assessed as inhibition of LPS-induced […] production. It is filed as functional, cell-based.
The nature of data set [4]: Anti-inflammatory activity in human PBMC cells assessed as inhibition of LPS-induced TNF-alpha production. It is filed as functional, cell-based.
A further data set deals with Ehrlich. In words: Antiproliferative activity against mouse EAC cell expressing VEGF-A by MTT assay. It counts as functional, cell-based.
Data set [5] is described as follows: Antiproliferative activity against mouse DLA cell expressing VEGF-A by MTT assay. It counts as functional, cell-based.
Data set [6] has as its system Human immunodeficiency virus 1. Put plainly: Antiviral activity against HIV-1 harboring V108I/Y181C double mutant. It counts as functional, organism-based.
The test system of data set [7] is Human immunodeficiency virus 1. In words: Antiviral activity against HIV-1 P236L mutant. It is filed as functional, organism-based.
The test system of data set [8] is Human immunodeficiency virus 1. Put plainly: Antiviral activity against HIV-1 harboring K103N/Y181C double mutant. It counts as functional, organism-based.
Data set [9] has as its system Human immunodeficiency virus 1. In words: Antiviral activity against HIV-1 Y188C mutant. It is filed as functional, organism-based.
The test system of data set [10] is Human immunodeficiency virus 1. Put plainly: Antiviral activity against HIV-1 K101E mutant. It is filed as functional, organism-based.
Data set [11] deals with Human immunodeficiency virus 1. Put plainly: Antiviral activity against HIV-1 K103N mutant. It is filed as functional, organism-based.
The test system of data set [12] is Human immunodeficiency virus 1. Put plainly: Antiviral activity against HIV-1 P225H mutant. It counts as functional, organism-based.
The test system of data set [13] is Human immunodeficiency virus 1. Put plainly: Antiviral activity against HIV-1 harboring K103N/V108I double mutant. It is filed as functional, organism-based.
Data set [14] deals with Human immunodeficiency virus 1. In words: Antiviral activity against HIV-1 E138K mutant. It counts as functional, organism-based.
Data set [15] relates to Human immunodeficiency virus 1. In words: Antiviral activity against HIV-1 L100I mutant. It counts as functional, organism-based.
Data set [16] deals with Human immunodeficiency virus 1. Put plainly: Antiviral activity against HIV-1 assessed as reduction in virus-induced cytopathic effect. It is filed as functional, organism-based.
Data set [17] concerns Human immunodeficiency virus 1. In words: Antiviral activity against HIV-1 harboring K103N/P225H double mutant. It is filed as functional, organism-based.
Data set [18] concerns Human immunodeficiency virus 1. In words: Antiviral activity against HIV-1 G190A mutant. It counts as functional, organism-based.
For data set [19], the system named is Human immunodeficiency virus 1. Put plainly: Antiviral activity against HIV-1 V108I mutant. It counts as functional, organism-based.
The test system of data set [20] is Human immunodeficiency virus 1. In words: Antiviral activity against HIV-1 V106I mutant. It is filed as functional, organism-based.
Data set [21] concerns Human immunodeficiency virus 1. In words: Antiviral activity against HIV-1 Y181C mutant. It counts as functional, organism-based.
Data set [22] deals with Human immunodeficiency virus 1. Put plainly: Antiviral activity against HIV-1 harboring K103N/L100I double mutant. It counts as functional, organism-based.
For data set [23], the system named is Human immunodeficiency virus 1. Put plainly: Antiviral activity against HIV-1. It is filed as functional, organism-based.
In data set [24] the target is Mitogen-activated protein kinase 14 (Homo sapiens, UniProt Q16539). Put plainly: Inhibition of P38alphaMAPK (unknown origin).
Data set [25] has as its target T1, Glutathione S-transferase A1 (Homo sapiens, UniProt P08263).
T1 sequence (P08263 whole entry): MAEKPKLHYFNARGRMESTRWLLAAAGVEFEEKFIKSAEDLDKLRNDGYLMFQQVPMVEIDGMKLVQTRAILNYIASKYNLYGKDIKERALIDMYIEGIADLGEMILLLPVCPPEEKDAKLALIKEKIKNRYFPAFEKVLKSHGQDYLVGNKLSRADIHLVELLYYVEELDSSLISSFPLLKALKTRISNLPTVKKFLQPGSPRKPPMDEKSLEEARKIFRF
Put plainly: Inhibition of recombinant human GSTA1-1.

The test system of data set [26] is Plasmodium falciparum. In words: In vivo antiplasmodial activity against Plasmodium falciparum infected in mouse model. It counts as functional.
Data set [27] concerns Plasmodium falciparum. Put plainly: Antiplasmodial activity against Plasmodium falciparum assessed as reduction in parasite growth. It counts as functional, organism-based.
A short description of data set [28]: Inhibition of FTase (unknown origin) by Perkin elmer analysis. Further details: species or system Homo sapiens.
Data set [29] can be described thus: Cytotoxicity against human HUVEC cells assessed as inhibition of cell growth. It counts as toxicity, cell-based.

As a reminder, the IC50 is the concentration at which inhibition is half-maximal. One may read the EC50 as the concentration giving half of the maximal effect. A word on the ED50: it is the midpoint of the dose-response relation.

The structures appear in SMILES notation. Values after ≈ are worked out from the molar mass of the structure shown.

Chain of Mitogen-activated protein kinase 14 (Q16539 whole entry): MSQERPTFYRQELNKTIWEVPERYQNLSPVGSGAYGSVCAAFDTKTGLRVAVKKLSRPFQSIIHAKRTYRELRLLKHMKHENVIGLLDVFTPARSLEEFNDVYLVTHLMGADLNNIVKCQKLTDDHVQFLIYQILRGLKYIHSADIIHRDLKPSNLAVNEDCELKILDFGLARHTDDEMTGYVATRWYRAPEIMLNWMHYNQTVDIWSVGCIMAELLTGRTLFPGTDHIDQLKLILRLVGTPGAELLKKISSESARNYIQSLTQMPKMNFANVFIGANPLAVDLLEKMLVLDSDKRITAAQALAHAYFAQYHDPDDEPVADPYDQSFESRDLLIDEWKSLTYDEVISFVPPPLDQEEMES

Molecule `Cc1cccc(C(=O)c2ccc(OCC(=O)NNC(=O)C3CN(Cc4ccccc4)CCO3)c(C)c2)c1` (centres undefined) showed a concentration for half-maximal inhibition (IC50) in the data set with MCF7 of 9300 nM.
`COc1ccc(C(=O)c2ccc(OCC(=O)N3CCC(CCCC4CCN(C(=O)c5ccc(Cl)cc5)CC4)CC3)cc2)c(OC)c1`: the IC50 in the data set with K562 and in the data set with CCRF-CEM was 1600 nM in each case.
Consider `O=C(COc1ccc(C(=O)c2ccccc2)cc1)c1ccc(Cl)c(Cl)c1`, for which the IC50 in the data set with Leishmania came out at 1.19 µg/mL (≈ 3.09 µM).
Turning to `O=C(c1ccccc1)c1cccc(NC(=O)c2ccc(-c3cccc(O)c3)o2)c1`, the results for the Activity in the data set on Rattus norvegicus [1] and in the data set with Rattus norvegicus [2] were 84% and 88%, respectively.
On to `Nc1ccccc1Nc1ccc(C(=O)c2ccccc2)cc1`, for which the IC50 in data set [3] stood at 226 nM; in [4], 159 nM.
For the molecule `COc1ccc(-c2csc(NC(=O)COc3ccc(C(=O)c4ccc(F)cc4C)cc3C)n2)cc1`, the IC50 (in the data set on Ehrlich; in [5]) was 5000 nM throughout.
Take `Cc1cc(S(N)(=O)=O)ccc1NC(=O)COc1ccc(Cl)cc1C(=O)c1cc(F)cc(C(F)(F)F)c1`: the half-inhibitory concentration (IC50) in data set [6], in [7], in data set [8], in [9], in data set [10] and in data set [11] was less than 10 nM each time. Besides, the IC50 in data set [12] is less than 10 nM; in data set [13], less than 10 nM; in data set [14] it was less than 10 nM; in data set [15] it was less than 10 nM; in data set [16], less than 2 nM; in [17] it was less than 10 nM. Moreover, the IC50 in [18], in [19], in data set [20], in [21] and in data set [22] was less than 10 nM each time.
`Cc1cc(C)cc(C(=O)c2cc(Cl)ccc2OC(C)C(=O)Nc2ccc(S(N)(=O)=O)cc2)c1` (centres undefined) came in with an EC50 in [23] of 2.9 nM.
`Cc1cc(F)ccc1Nc1ccc(C(=O)c2ccccc2C)c(Cl)c1`: the IC50 in [3] (Homo sapiens, PBMC) is 14 nM; in [4] it was 4 nM.
On to `Cc1cc(S(N)(=O)=O)ccc1NC(=O)COc1ccc(Cl)cc1C(=O)c1cccc(C#N)c1`, for which the IC50 in [6], in [7], in data set [8], in [9], in data set [10] and in data set [11] was less than 10 nM throughout. Besides, the IC50 is less than 10 nM in data set [12]; less than 10 nM in [13]; less than 10 nM in data set [14]; less than 10 nM in [15]; less than 2 nM in data set [16]; less than 10 nM in [17]. Also, the IC50 in data set [18], in [19], in [20], in data set [21] and in data set [22] was less than 10 nM each time.
For the molecule `Cc1ccccc1C(=O)c1ccc(Nc2ccccc2N)cc1Cl`, the IC50 in [3] (Homo sapiens, PBMC) turned out to be 14 nM; in data set [4] it was 4 nM.
Regarding `Cc1cccc(C(=O)c2cc(Cl)ccc2OCC(=O)Nc2ccc([N+](=O)[O-])cc2C)c1`, the midpoint of the response in [23], the EC50, lay at 4.2 nM.
In data set [24], `Cc1cc(C(=O)NC2CC2)ccc1-c1ccc(C(=O)c2cccc(CCC(O)CO)c2)cc1` (centres undefined) yielded an IC50 of 27 nM.
Consider `Cc1cc(OCCCS(N)(=O)=O)ccc1NC(=O)COc1ccc(Cl)cc1C(=O)c1cc(F)cc(C(F)(F)F)c1`, for which the 50% inhibitory concentration (IC50) in data set [6], in [7], in data set [8], in [9], in data set [10] and in [11] was less than 10 nM in each case. The IC50 was less than 10 nM in data set [12]; less than 10 nM in data set [13]; less than 10 nM in data set [14]; less than 10 nM in [15]; less than 2 nM in [16]; less than 10 nM in data set [17]. In addition, the IC50 in [18], in [19], in [20], in [21] and in [22] was less than 10 nM throughout.
For the molecule `Cc1cc(C(=O)c2cccc(Br)c2)ccc1OCC(=O)NNC(=O)C1CN(Cc2ccccc2)CCO1` (centres undefined), the IC50 in the data set on MCF7 amounted to 7100 nM.
In data set [24], `COc1ccc(C#CC(C)(C)N)cc1C(=O)c1ccc(Nc2ccc(F)cc2F)cc1` yielded an IC50 of 14 nM.
For the molecule `Cc1ccccc1C(=O)c1ccc(Nc2ccc(Br)cc2N)cc1Cl`, the IC50 in [3] (Homo sapiens, PBMC) was 14 nM; in data set [4], 4 nM.
Take `O=C(c1ccccc1O)c1cc(Br)ccc1O`: in data set [25], the IC50 stood at 180 nM.
In the case of `CN(C)CCN(C)C(C(=O)Nc1ccc(NC(=O)/C=C/c2ccc(-c3ccc([N+](=O)[O-])cc3)o2)cc1C(=O)c1ccccc1)c1ccccc1` (centres undefined), the ED50 with Plasmodium falciparum [26] amounted to 16 mg/kg. The values for the half-inhibitory concentration (IC50) (in the data set with Plasmodium falciparum [27]; in data set [28]) were 32 nM and 21 nM, respectively.
Turning to `COc1ccc(C(=O)c2ccc(OCC(=O)N3CCC(CCCC4CCN(C(=S)c5ccc(Cl)cc5)CC4)CC3)cc2)c(OC)c1`, the IC50 in the data set on K562 and in the data set with CCRF-CEM was 1600 nM throughout.
In the case of `CC(C)(C)c1[nH]cnc1/C=c1\[nH]c(=O)/c(=C/c2ccccc2)[nH]c1=O` [PLINABULIN], the IC50 in [29] was 10 nM.
